From US5700640A, “Inducers of gamma globin gene expression and screening assays therefor” (priority 1994, dated 1997) come the findings set out here.

SMILES strings stand for the structures.

The nature of one data set: in vitro. Particulars: human, k562 cells. How it is done: (§1) To normalize luciferase units to the number of viable cells, parallel cell viability assays were performed using 3-(4,5-dimethylthiazol-2-yl)-2,5-diphenyltetrazolium bromide (MTT) (Vistica, D. T. et al. (1991) Cancer Res. 51:2515-2520). Transfected K562 cells were plated in 96 well dishes at a density of 2×10^4 and 2×10^3 cells per 100 μl per well. 24 hours later, the cells were treated with test compounds (at a final concentration of 5 mM). At 24, 50, 74 or 122 hours after treatment, 50 μl of 3 mg/ml MTT in PBS was added to each well. The 96 well plate was then incubated at 37° C. for 4 to 5 hours. The formazan derivatives formed from tetrazolium by viable cells were solubilized by the addition of 50 μl/well 25% SDS, pH 3, overnight at 37° C. The plates were than read at a wavelength of 550 nm.

Another data set has as its system K562 cells. Description: in vitro. How it is done:
as §1

As for `CCCC(=O)O` [BA, butyric acid], in the data set “in vitro”, the cytotoxicity at 72 h, 5000 µM was approximately 100% and the viability at 122 h, 5000 µM is less than 30%. Further, the “effect on cell viability within 24 hours (FIG. 7)” value in the data set on K562 cells is reported as “negative effect on cell viability within 24 hours after treatment”.

Usually viability stands for a per cent measure of how many cells are alive, often set against a control.
